Key:
lysozyme (Lys) [1] = target: T1, lysozyme (Lys) (Gallus gallus, UniProt P00698); test: Intrinsic (tryptophan) fluorescence of lysozyme; set-up: species or system chicken; conditions: 0.2 mg/mL Lys, excitation 295 nm, component 0.1–800 mM, 25 °C
T1 construct: Lyophilized lysozyme from chicken egg white, ≥90% purity; purchased Millipore (Darmstadt, Germany); host or cells: chicken egg white (natural source)
Description: (FIL), [C4C1Im][CF3SO3] (mere fluoro-containing IL), and [ N1112(OH) ][H2PO4] (globular protein stabilizer). […] Even though large changes in protein conformation can modify the intensity of tyrosine and phenylalanine fluorescence signals, their low extinction coefficients and quantum yields, as well as their relative lower sensitivity to environmental changes, make them a less appealing candidate. Tryptophan is frequently found concealed in the hydrophobic core of proteins due to its aromatic nature. […] The tryptophan release energy is particularly sensitive to the polarity (and dynamics) of the environment because the excited-state dipole moment is quite large. Reactions to denaturation, substrate binding, subunit association, and conformational transitions create variations in the tryptophan emission spectra. The spectrum shift generally known as blue shift, a shift of the maximum emission towards smaller wavelengths, denotes that the aromatic residue is buried in the native structure of the protein [67]. […] Furthermore, the amount of exposure of the fluorophores to the solvent is associated with the increase or decrease in the intensity of the emission spectrum. […] [C4C1Im][CF3SO3] and [ N1112(OH) ][H2PO4] […] Variations in lysozyme spectra are caused by ligand-induced changes in the microenvironment of tryptophan residues, either by shifting the maximum peak wavelength (blue or red shift) or by altering peak intensities. These changes can be used as a measure of the effect of the ABS phase-forming components on protein folding and unfolding.
Intrinsic fluorescence spectroscopy measurements of lysozyme’s tryptophan residues were carried out on a Spex Horiba Jobyin Yvon spectrofluorometer (HORIBA Jobin Yvon, France) using a 10 mm path length quartz cuvette. […] The excitation and emission slit widths of 2 nm were used for all the measurements. Maximum fluorescence values were attained as the average of three measurements.

lysozyme (Lys) [2] = target: T1, lysozyme (Lys); test: Far-UV CD secondary structure content of lysozyme (K2D deconvolution); set-up: species or system chicken; Lys α-helix content / Lys β-sheet content / Lys random coil content / α-helix content / β-sheet content / Random coil content: unit not given here; conditions: 1.0 mg/ml Lys, 25 °C
Protocol: Circular dichroism (CD) spectroscopy is broadly applied to assess the secondary structure of proteins because different structural elements have characteristic CD spectra. […] For [C4C1Im][CF3SO3] (mere fluoro-containing IL), the structural content was estimated for the concentration range (0.1–200 mM). […] FIL and [ N1112(OH) ][H2PO4] […] No substantial protein structural modification upon the ABS phase-forming component addition was verified.
Circular dichroism (CD) spectra were collected in a 10 mm quartz cuvette and a Chirascan spectropolarimeter (Applied Photophysics, Leatherhead, UK) at room temperature. All CD spectra were recorded in far-UV 190 to 260 nm at scan rates of 50 nm/min, 4 accumulations, and a response time of 3 s. Each CD experiment involved the acquisition and combination of two distinct duplicates. […] Spectral deconvolution was carried out with Dichroweb using the K2D algorithm.

lysozyme (Lys) [3] = target: T1, lysozyme (Lys); test: Turbidimetry (transmittance) of lysozyme solutions; set-up: species or system chicken; conditions: 0.2 mg/mL Lys, IL 0.1–120 mM, 25 °C
Description: Monitoring the changes in turbidity offers an insight into the protein–ionic liquid aqueous solution interactions, which allows for the assessment of the ionic liquid functionalization of the fluorinated IL vs. the mere fluoro-contaning IL ([C2C1Im][C4F9SO3] vs. [C4C1Im][CF3SO3]). […] In opposition, [C2C1Im][C4F9SO3] […] The results of Rather et al. also confirmed the significant composition and concentration dependence of the lysozyme–surfactant IL interactions, mainly in the CAC concentration regime. Additionally, an increase in turbidity is observed for both [C4C1Im][CF3SO3] and [C2C1Im][C4F9SO3] at concentrations below the first CAC of the FIL (only monomers exist in solution for both ionic liquids) in comparison with lysozyme in water (snapshots in Figure 7A,B). […]
Both turbidimetry and UV-Vis absorbance assays were carried out at 25 °C on a double-beam UV6300PL UV-Vis spectrophotometer (VWR, Leuven, Belgium) with a pair of 10 mm path length quartz cuvettes of 400 µL sample volume. […] For absorbance measurements, all spectra were acquired with 190 to 400 nm wavelength range. […] Aqueous solutions of [C4C1Im][CF3SO3] and [C2C1Im][C4F9SO3] were analyzed with concentrations varying from 0.1 to 120 mM.

T1 sequence (P00698 19-147): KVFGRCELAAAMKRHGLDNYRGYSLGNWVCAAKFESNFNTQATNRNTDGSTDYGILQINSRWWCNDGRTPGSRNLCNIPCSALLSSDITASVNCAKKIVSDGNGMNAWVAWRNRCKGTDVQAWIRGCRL

Question: Which “Lys fluorescence emission intensity with increasing component concentration” value (lysozyme (Lys) [1]) does the source give for `CCCCn1cc[n+](C)c1.O=S(=O)([O-])C(F)(F)F` [[C4C1Im][CF3SO3]] here?
Answer: increase in Lys fluorescence emission intensity

Question: What about the “Lys maximum emission wavelength with increasing component concentration” value (lysozyme (Lys) [1]) of the same compound?
Answer: red shift from 334 nm to 368 nm

Question: What about the “Lys random coil content” value (lysozyme (Lys) [2]; 0.1 mM component) of the same compound?
Answer: 0.56

Question: And the “Lys α-helix content” value (lysozyme (Lys) [2]; 0.1 mM component)?
Answer: 0.28

Question: And the “Lys β-sheet content” value (lysozyme (Lys) [2]; 0.1 mM component)?
Answer: 0.15

Question: What about the “Lys random coil content” value (lysozyme (Lys) [2]; 1 mM component) of the same compound?
Answer: 0.57

Question: What about the “Lys α-helix content” value (lysozyme (Lys) [2]; 1 mM component) of the same compound?
Answer: 0.28

Question: And the “Lys β-sheet content” value (lysozyme (Lys) [2]; 1 mM component)?
Answer: 0.15

Question: And the “Lys random coil content” value (lysozyme (Lys) [2]; 5 mM component)?
Answer: 0.57

Question: And the “Lys α-helix content” value (lysozyme (Lys) [2]; 5 mM component)?
Answer: 0.28

Question: And the “Lys β-sheet content” value (lysozyme (Lys) [2]; 5 mM component)?
Answer: 0.15

Question: What about the “Lys random coil content” value (lysozyme (Lys) [2]; 25 mM component) of the same compound?
Answer: 0.57

Question: What about the “Lys α-helix content” value (lysozyme (Lys) [2]; 25 mM component) of the same compound?
Answer: 0.28

Question: And the “Lys β-sheet content” value (lysozyme (Lys) [2]; 25 mM component)?
Answer: 0.15

Question: What about the “Lys random coil content” value (lysozyme (Lys) [2]; 55 mM component) of the same compound?
Answer: 0.57

Question: What about the “Lys α-helix content” value (lysozyme (Lys) [2]; 55 mM component) of the same compound?
Answer: 0.28

Question: What about the “Lys β-sheet content” value (lysozyme (Lys) [2]; 55 mM component) of the same compound?
Answer: 0.15

Question: What about the “Lys random coil content” value (lysozyme (Lys) [2]; 90 mM component) of the same compound?
Answer: 0.56

Question: And the “Lys α-helix content” value (lysozyme (Lys) [2]; 90 mM component)?
Answer: 0.28

Question: What about the “Lys β-sheet content” value (lysozyme (Lys) [2]; 90 mM component) of the same compound?
Answer: 0.15

Question: And the “Lys random coil content” value (lysozyme (Lys) [2]; 120 mM component)?
Answer: 0.56

Question: And the “Lys α-helix content” value (lysozyme (Lys) [2]; 120 mM component)?
Answer: 0.28

Question: What about the “Lys β-sheet content” value (lysozyme (Lys) [2]; 120 mM component) of the same compound?
Answer: 0.15

Question: What about the “Lys random coil content” value (lysozyme (Lys) [2]; 200 mM component) of the same compound?
Answer: 0.55

Question: What about the “Lys α-helix content” value (lysozyme (Lys) [2]; 200 mM component) of the same compound?
Answer: 0.29

Question: What about the “Lys β-sheet content” value (lysozyme (Lys) [2]; 200 mM component) of the same compound?
Answer: 0.16

Question: And the “Turbidity (transmittance) of Lys solution with increasing IL concentration” value (lysozyme (Lys) [3])?
Answer: steady turbidity profile
